One test deals with PI3 Kinase α (Homo sapiens, UniProt P42336). Briefly: Fluorescence polarization assay for PI3K (PI3 Kinase α). It counts as biochemical. Conditions: diC8-PI(4,5)P2 substrate, 25 μM ATP, one hour at 25° C.
The target of the next test is PI3 Kinase γ (Homo sapiens, UniProt P48736). Briefly: Fluorescence polarization assay for PI3K (PI3 Kinase γ). The format is biochemical. Particulars: diC8-PI(4,5)P2 substrate, 25 μM ATP, one hour at 25° C.

Results on 28 compounds are retold here after US20090181963A1, “3H-[1,2,3]TRIAZOLO[4,5-D]PYRIMIDINE COMPOUNDS, THEIR USE AS mTOR KINASE AND PI3 KINASE INHIBITORS, AND THEIR [sequence]” (Wyeth, priority 2008, published 2009).

Each structure is given as a SMILES string. pIC50: −log10 of the molar value.

Sequence of PI3 Kinase α (P42336 whole entry): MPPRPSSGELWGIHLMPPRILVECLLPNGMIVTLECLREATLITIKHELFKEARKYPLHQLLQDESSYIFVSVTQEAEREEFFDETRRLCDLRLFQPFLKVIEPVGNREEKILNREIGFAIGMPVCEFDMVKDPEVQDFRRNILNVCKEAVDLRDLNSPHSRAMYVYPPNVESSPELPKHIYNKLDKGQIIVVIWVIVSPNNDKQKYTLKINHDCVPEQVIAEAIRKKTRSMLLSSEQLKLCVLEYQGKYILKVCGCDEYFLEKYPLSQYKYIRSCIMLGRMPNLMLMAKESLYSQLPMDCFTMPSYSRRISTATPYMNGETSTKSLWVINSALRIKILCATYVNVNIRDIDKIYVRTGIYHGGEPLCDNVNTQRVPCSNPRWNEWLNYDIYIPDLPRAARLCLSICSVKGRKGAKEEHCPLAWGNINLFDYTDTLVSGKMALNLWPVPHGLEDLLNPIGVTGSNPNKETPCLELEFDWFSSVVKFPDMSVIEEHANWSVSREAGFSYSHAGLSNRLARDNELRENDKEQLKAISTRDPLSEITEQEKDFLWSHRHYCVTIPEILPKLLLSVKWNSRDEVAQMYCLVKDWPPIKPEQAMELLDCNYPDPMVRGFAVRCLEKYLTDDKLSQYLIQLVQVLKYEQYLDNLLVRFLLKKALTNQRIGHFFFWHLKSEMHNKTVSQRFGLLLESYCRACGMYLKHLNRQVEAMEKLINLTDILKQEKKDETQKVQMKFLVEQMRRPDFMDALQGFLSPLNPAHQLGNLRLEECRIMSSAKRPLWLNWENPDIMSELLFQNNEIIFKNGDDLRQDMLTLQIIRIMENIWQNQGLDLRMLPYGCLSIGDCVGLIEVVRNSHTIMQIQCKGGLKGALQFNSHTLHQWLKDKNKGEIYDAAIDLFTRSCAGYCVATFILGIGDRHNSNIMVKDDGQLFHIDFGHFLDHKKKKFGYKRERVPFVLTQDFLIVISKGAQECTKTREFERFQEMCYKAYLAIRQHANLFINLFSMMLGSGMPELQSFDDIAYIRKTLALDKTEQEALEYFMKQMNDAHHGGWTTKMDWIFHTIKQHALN
Sequence of PI3 Kinase α (P27986 whole entry partner): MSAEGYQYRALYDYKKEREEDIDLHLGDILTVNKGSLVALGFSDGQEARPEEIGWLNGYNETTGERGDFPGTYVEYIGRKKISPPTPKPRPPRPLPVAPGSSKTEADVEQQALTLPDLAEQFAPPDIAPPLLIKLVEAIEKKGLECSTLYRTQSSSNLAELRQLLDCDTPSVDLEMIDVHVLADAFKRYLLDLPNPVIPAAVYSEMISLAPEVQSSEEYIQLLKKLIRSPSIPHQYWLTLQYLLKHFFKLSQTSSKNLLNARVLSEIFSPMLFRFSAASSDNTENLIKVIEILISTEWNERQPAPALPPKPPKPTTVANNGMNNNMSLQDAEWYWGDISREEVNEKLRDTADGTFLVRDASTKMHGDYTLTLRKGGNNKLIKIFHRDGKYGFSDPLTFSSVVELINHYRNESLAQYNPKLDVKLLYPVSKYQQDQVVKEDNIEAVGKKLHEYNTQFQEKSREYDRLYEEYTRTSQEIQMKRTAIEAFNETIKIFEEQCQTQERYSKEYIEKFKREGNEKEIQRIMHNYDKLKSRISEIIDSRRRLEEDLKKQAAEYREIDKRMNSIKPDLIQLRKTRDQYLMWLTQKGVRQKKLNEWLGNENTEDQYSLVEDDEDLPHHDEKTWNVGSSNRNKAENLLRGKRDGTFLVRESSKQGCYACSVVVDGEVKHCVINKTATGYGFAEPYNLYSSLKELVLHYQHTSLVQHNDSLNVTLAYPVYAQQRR
Sequence of PI3 Kinase γ (P48736 whole entry): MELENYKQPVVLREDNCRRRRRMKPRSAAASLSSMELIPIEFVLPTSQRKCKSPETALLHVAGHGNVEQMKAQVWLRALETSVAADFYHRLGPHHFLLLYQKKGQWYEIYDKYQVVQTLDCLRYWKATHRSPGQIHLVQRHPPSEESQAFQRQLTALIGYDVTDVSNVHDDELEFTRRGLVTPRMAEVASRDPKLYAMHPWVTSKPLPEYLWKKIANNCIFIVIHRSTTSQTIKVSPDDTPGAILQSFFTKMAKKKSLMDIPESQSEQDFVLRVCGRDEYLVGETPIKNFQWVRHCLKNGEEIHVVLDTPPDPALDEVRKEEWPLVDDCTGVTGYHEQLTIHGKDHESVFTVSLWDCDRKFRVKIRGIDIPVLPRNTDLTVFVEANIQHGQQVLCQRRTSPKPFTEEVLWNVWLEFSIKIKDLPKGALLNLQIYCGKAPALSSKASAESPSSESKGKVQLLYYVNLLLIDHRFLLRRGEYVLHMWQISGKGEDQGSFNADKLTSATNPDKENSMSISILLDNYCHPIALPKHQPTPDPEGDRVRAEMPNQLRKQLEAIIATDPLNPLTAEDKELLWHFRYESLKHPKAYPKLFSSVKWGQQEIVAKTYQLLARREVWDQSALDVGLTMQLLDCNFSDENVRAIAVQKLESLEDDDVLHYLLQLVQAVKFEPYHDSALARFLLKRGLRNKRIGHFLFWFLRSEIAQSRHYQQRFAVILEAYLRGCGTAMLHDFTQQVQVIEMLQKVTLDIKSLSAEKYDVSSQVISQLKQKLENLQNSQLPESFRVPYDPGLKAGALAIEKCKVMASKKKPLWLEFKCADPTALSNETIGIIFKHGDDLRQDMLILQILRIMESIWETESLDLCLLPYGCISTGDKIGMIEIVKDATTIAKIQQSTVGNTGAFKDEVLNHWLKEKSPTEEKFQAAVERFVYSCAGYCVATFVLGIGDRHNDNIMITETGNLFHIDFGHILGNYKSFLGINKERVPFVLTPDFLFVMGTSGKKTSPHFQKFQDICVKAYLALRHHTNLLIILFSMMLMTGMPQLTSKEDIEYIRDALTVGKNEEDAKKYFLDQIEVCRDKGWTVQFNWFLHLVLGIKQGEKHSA
Procedure for PI3 Kinase γ: Nunc 384 well black polypropylene fluorescent plates were used for PI3K assays. Reactions were quenched by the addition of EDTA to a final concentration of 10 μM. Final reaction volumes were 10 ml. […] Reactions were allowed to proceed for one hour at 25° C. After I hour, GST-tagged GRP1 (general receptor for phosphoinositides) PH domain fusion protein was added to a final concentration of 100 nM, and BODIPY-TMRI(1,3,4,5)P4 (Echelon) was also added to a final concentration of 5 nM. Final sample volumes were 25 μl with a final DMSO concentration of 0.8%. Assay Plates were read on PerkinElmer Envision plate readers with appropriate filters for Tamra [BODIPY-TMRI(1,3,4,5)P4]. Data obtained were used to calculate enzymatic activity and enzyme inhibition by inhibitor compounds.

As to `COc1ccc(NC(=O)Nc2ccc(-c3nc(N4CCOCC4)c4nnn(C(C)C)c4n3)cc2)cc1` [Example 89, 1-(4-methoxy-phenyl)-3-[4-(3-isopropyl-7-morpholin-4-yl-3H-[1,2,3]triazolo[4,5-d]pyrimidin-5-yl)-phenyl]-urea], the pIC50 on PI3 Kinase α was 7.81; at PI3 Kinase γ, 7.40.
The like results for `O=C(NCc1ccco1)c1ccc(Cn2nnc3c(N4CCOCC4)nc(-c4cccc(O)c4)nc32)cc1` [Example 230, N-(2-furylmethyl)-4-{[5-(3-hydroxyphenyl)-7-morpholin-4-yl-3H-[1,2,3]triazolo[4,5-d]pyrimidin-3-yl]methyl}benzamide] were, in that order, 6.93 and 6.03.
The like results for `O=C(Nc1ccncc1)Nc1ccc(-c2nc(N3CCOCC3)c3nnn(C4CCNCC4)c3n2)cc1` [Example 167, 1-[4-(7-morpholin-4-yl-3-piperidin-4-yl-3H-[1,2,3]triazolo[4,5-d]pyrimidin-5-yl)phenyl]-3-pyridin-4-ylurea] were, in that order, 8.05 and 7.04.
`O=C(O)c1cccc(-n2nnc3c(N4CCOCC4)nc(-c4cccc(O)c4)nc32)c1` [Example 118, 3-[5-(3-hydroxyphenyl)-7-morpholin-4-yl-3H-[1,2,3]triazolo[4,5-d]pyrimidin-3-yl]benzoic acid]: the figures for the negative logarithm of the IC50 (pIC50) at PI3 Kinase α and at PI3 Kinase γ were 7.56 and 6.99, respectively.
On to `CN(C)CCCOc1ccc(CN2CCC(n3nnc4c(N5CCOCC5)nc(-c5ccc(NC(=O)NCCN(C)C)cc5)nc43)CC2)cc1` [Example 162, 1-(2-(dimethylamino)ethyl)-3-(4-(3-(1-(4-(3-(dimethylamino)propoxy)benzyl)piperidin-4-yl)-7-morpholino-3H-[1,2,3]triazolo[4,5-d]pyrimidin-5-yl)phenyl)urea], for which the values for the pIC50 at PI3 Kinase α and on PI3 Kinase γ were 7.94 and 6.99, respectively.
The like results for `CCn1nnc2c(N3CCOC[C@@H]3C)nc(-c3ccc(NC(=O)Nc4ccc(F)cc4)cc3)nc21` [Example 74, (S)-1-(4-(3-ethyl-7-(3-methylmorpholino)-3H-[1,2,3]triazolo[4,5-d]pyrimidin-5-yl)phenyl)-3-(4-fluorophenyl)urea] were, in that order, 8.02 and 7.01.
As for `CCn1nnc2c(N3CCOCC3)nc(-c3ccc(NC(=O)Nc4ccc(C(=O)N(C)CCN(C)C)cc4)cc3)nc21` [Example 45, N-[2-(dimethylamino)ethyl]-4-({[4-(3-ethyl-7-morpholin-4-yl-3H-[1,2,3]triazolo[4,5-d]pyrimidin-5-yl)phenyl]carbamoyl}amino)-N-methylbenzamide], the pIC50 at PI3 Kinase α is over 8.66; against PI3 Kinase γ it was 7.95.
The like results for `CC(C)(C)OC(=O)N1CC(n2nnc3c(N4CCOCC4)nc(-c4ccc(NC(=O)Nc5ccncc5)cc4)nc32)C1` [Example 129, tert-butyl 3-(7-morpholin-4-yl-5-{4-[(pyridin-4-ylcarbamoyl)amino]phenyl}-3H-[1,2,3]triazolo[4,5-d]pyrimidin-3-yl)azetidine-1-carboxylate] were, in that order, 7.52 and 6.81.
The like results for `O=C(NC1CC1)c1ccc(Cn2nnc3c(N4CCOCC4)nc(-c4cccc(O)c4)nc32)cc1` [Example 221, N-cyclopropyl-4-{[5-(3-hydroxyphenyl)-7-morpholin-4-yl-3H-[1,2,3]triazolo[4,5-d]pyrimidin-3-yl]methyl}benzamide] were, in that order, 6.52 and 5.93.
The like results for `CC(C)(C)OC(=O)N1CCC(n2nnc3c(N4CCOCC4)nc(-c4ccc(NC(=O)Nc5cccnc5)cc4)nc32)CC1` [Example 150, tert-butyl 4-(7-morpholin-4-yl-5-{4-[(pyridin-3-ylcarbamoyl)amino]phenyl}-3H-[1,2,3]triazolo[4,5-d]pyrimidin-3-yl)piperidine-1-carboxylate] were, in that order, 7.67 and 6.65.
In the case of `O=C(c1ccc(F)c(F)c1)N1CCN(CCn2nnc3c(N4CCOCC4)nc(-c4cccc(O)c4)nc32)CC1` [Example 102, 3-(3-{2-[4-(3,4-difluorobenzoyl)piperazin-1-yl]ethyl}-7-morpholin-4-yl-3H-[1,2,3]triazolo[4,5-d]pyrimidin-5-yl)phenol], the pIC50 against PI3 Kinase α was 5.90; on PI3 Kinase γ, 5.72.
The like results for `CCn1nnc2c(N3CCOC[C@@H]3C)nc(-c3ccc(NC(=O)Nc4ccncc4)cc3)nc21` [Example 71, (S)-1-(4-(3-ethyl-7-(3-methylmorpholino)-3H-[1,2,3]triazolo[4,5-d]pyrimidin-5-yl)phenyl)-3-(pyridin-4-yl)urea] were, in that order, 8.15 and 7.26.
On to `Cc1ccc(NC(=O)Nc2ccc(-c3nc(N4CCOCC4)c4nnn(C(C)C)c4n3)cc2)cc1` [Example 90, 1-(4-methyl-phenyl)-3-[4-(3-isopropyl-7-morpholin-4-yl-3H-[1,2,3]triazolo[4,5-d]pyrimidin-5-yl)-phenyl]-urea], for which the pIC50 on PI3 Kinase α is 7.46; at PI3 Kinase γ it was 7.00.
As for `CC(C)(C)OC(=O)N1CCC(n2nnc3c(N4CCOCC4)nc(-c4cnc(N)nc4)nc32)CC1` [Example 148, tert-butyl 4-[5-(2-aminopyrimidin-5-yl)-7-morpholin-4-yl-3H-[1,2,3]triazolo[4,5-d]pyrimidin-3-yl]piperidine-1-carboxylate], the negative logarithm of the IC50 (pIC50) against PI3 Kinase α is 6.95; on PI3 Kinase γ it was 5.85.
Consider `CC(C)n1nnc2c(N3CCOCC3)nc(-c3ccc(NC(=O)Nc4cnoc4)cc3)nc21` [Example 94, 1-[4-(3-isopropyl-7-morpholin-4-yl-3H-[1,2,3]triazolo[4,5-d]pyrimidin-5-yl)-phenyl]-3-isoxazol-4-yl-urea], for which the pIC50 against PI3 Kinase α was 7.46; against PI3 Kinase γ, 6.88.
The like results for `CC(C)(C)OC(=O)N1CC(Cn2nnc3c(N4CCOCC4)nc(-c4ccc(N)cc4)nc32)C1` [Example 187, tert-Butyl 3-{[5-(4-aminophenyl)-7-morpholin-4-yl-3H-[1,2,3]triazolo[4,5-d]pyrimidin-3-yl]methyl}azetidine-1-carboxylate] were, in that order, 5.68 and 4.92.
The like results for `CCn1nnc2c(N3CCOC[C@@H]3C)nc(-c3ccc(NC(=O)Nc4cccs4)cc3)nc21` [Example 69, (S)-1-(4-(3-ethyl-7-(3-methylmorpholino)-3H-[1,2,3]triazolo[4,5-d]pyrimidin-5-yl)phenyl)-3-(thiophen-2-yl)urea] were, in that order, 8.07 and 7.01.
Take `O=C(NCC(O)c1ccccc1)c1ccc(Cn2nnc3c(N4CCOCC4)nc(-c4cccc(O)c4)nc32)cc1` (centres unmarked) [Example 226, N-(2-hydroxy-2-phenylethyl)-4-{[5-(3-hydroxyphenyl)-7-morpholin-4-yl-3H-[1,2,3]triazolo[4,5-d]pyrimidin-3-yl]methyl}benzamide]: the results for the pIC50 at PI3 Kinase α and against PI3 Kinase γ were 6.90 and 6.02, respectively.
Regarding `CNC(=O)c1cccc(-n2nnc3c(N4CCOCC4)nc(-c4cccc(O)c4)nc32)c1` [Example 121, 3-[5-(3-hydroxyphenyl)-7-morpholin-4-yl-3H-[1,2,3]triazolo[4,5-d]pyrimidin-3-yl]-N-methylbenzamide], the negative logarithm of the IC50 (pIC50) was 7.44 on PI3 Kinase α and 6.26 against PI3 Kinase γ.
The like results for `NC(=O)c1cccc(-n2nnc3c(N4CCOCC4)nc(-c4cccc(O)c4)nc32)c1` [Example 119, 3-[5-(3-hydroxyphenyl)-7-morpholin-4-yl-3H-[1,2,3]triazolo[4,5-d]pyrimidin-3-yl]benzamide] were, in that order, 7.65 and 6.50.
Turning to `OCc1cncc(-c2nc(N3CCOCC3)c3nnn(C4CCNCC4)c3n2)c1` [Example 174, [5-(7-morpholin-4-yl-3-piperidin-4-yl-3H-[1,2,3]triazolo[4,5-d]pyrimidin-5-yl)pyridin-3-yl]methanol], the pIC50 against PI3 Kinase α is 6.55; against PI3 Kinase γ it was 6.02.
In the case of `O=C(Nc1ccccc1)Nc1ccc(-c2nc(N3CCOCC3)c3nnn(CC4CN(Cc5ccc(F)cc5)C4)c3n2)cc1` [Example 192, 1-[4-(3-{[1-(4-fluorobenzyl)azetidin-3-yl]methyl}-7-morpholin-4-yl-3H-[1,2,3]triazolo[4,5-d]pyrimidin-5-yl)phenyl]-3-phenylurea], the figures for the pIC50 at PI3 Kinase α and against PI3 Kinase γ were 6.83 and 6.26, respectively.
As to `O=C(Nc1ccncc1)Nc1ccc(-c2nc(N3CCOCC3)c3nnn(C4CC4)c3n2)cc1` [Example 78, 1-(4-(3-cyclopropyl-7-morpholino-3H-[1,2,3]triazolo[4,5-d]pyrimidin-5-yl)phenyl)-3-(pyridin-4-yl)urea], the results for the pIC50 against PI3 Kinase α and at PI3 Kinase γ were 8.22 and 7.87, respectively.
The like results for `CCn1nnc2c(N3CCOCC3)nc(-c3ccc(NC(=O)Nc4ccc(C(=O)NCCN(C)C)cc4)cc3)nc21` [Example 43, N-[2-(dimethylamino)ethyl]-4-({[4-(3-ethyl-7-morpholin-4-yl-3H-[1,2,3]triazolo[4,5-d]pyrimidin-5-yl)phenyl]carbamoyl}amino)benzamide] were, in that order, 9.00 and 7.74.
The like results for `Nc1ncc(-c2nc(N3CCOCC3)c3nnn(C4CCN(Cc5ccccc5)CC4)c3n2)cn1` [Example 2, 5-[3-(1-benzylpiperidin-4-yl)-7-morpholin-4-yl-3H-[1,2,3]triazolo[4,5-d]pyrimidin-5-yl]pyrimidin-2-amine] were, in that order, 5.74 and 5.36.
The like results for `Oc1cccc(-c2nc(N3CCOCC3)c3nnn(C4CNC4)c3n2)c1` [Example 125, 3-(3-azetidin-3-yl-7-morpholin-4-yl-3H-[1,2,3]triazolo[4,5-d]pyrimidin-5-yl)phenol] were, in that order, 6.88 and 5.71.
On to `COc1ccc(NC(=O)Nc2ccc(-c3nc(N4CCOCC4)c4nnn(CCO)c4n3)cc2)cc1` [Example 185, 1-{4-[3-(2-hydroxyethyl)-7-morpholin-4-yl-3H-[1,2,3]triazolo[4,5-d]pyrimidin-5-yl]phenyl}-3-(4-methoxyphenyl)urea], for which the pIC50 against PI3 Kinase α is 7.85; on PI3 Kinase γ, 7.35.
Consider `COC(Cn1nnc2c(N3CCOCC3)nc(-c3ccc(NC(=O)Nc4ccc(C)cc4)cc3)nc21)OC` [Example 179, 1-{4-[3-(2,2-dimethoxyethyl)-7-morpholin-4-yl-3H-[1,2,3]triazolo[4,5-d]pyrimidin-5-yl]phenyl}-3-(4-methylphenyl)urea], for which the pIC50 is 6.85 on PI3 Kinase α and 6.47 on PI3 Kinase γ.
